Source: patent US20060127400A1, “Activation of regulatory T cells by alpha-melanocyte stimulating hormone” (THE SCHEPENS EYE RESEARCH INSTITUTE, INC., priority 1999, published 2006)
“Also recorded” adds a separate entry of the source. No end group written: not given here.

Legend:
[1] = tested on: EAU; conditions: direct injections into eyes of mice; cited from earlier work
[2] = tested on: primed T cells; assay: total TGF-β production by TCR-stimulated primed T cells, Mv1Lu (CCL-64) bioassay; type: cell-based, mouse (BALB/c); conditions: 48 h
Method: TGF-β bioassay. To measure total TGF-β, 100 μl of conditioned media was pretreated according to standard procedures (24) with 10 μl 1N HCL to lower the media pH to 2 and incubated for 1 hour at 4° C. The acid was neutralized with 20 μl of a 1:1 mixture of 1N NaOH: 1M HEPES returning the culture supernatant to a pH 7.3. The transiently acidified conditioned media was then used in the Mv1Lu assay; diluted 1:4 in EMEM+0.5% FBS. To the wells of a Falcon 96-well flat-bottom plate, 100 μl of diluted transiently acidified samples were added with 100 μl of 1×10^5 Mv1Lu cells (CCL-64; ATCC, Rockville, Md.). The plate was incubated for 20 hours at 37° C., 5% CO2 followed by the addition of 20 μl of 50 μCi/ml 3H-thymidine and the plate was incubated for an additional 4 hours. Supernatant was discarded and 50 μl of 10× Trypsin-EDTA (Biowhittaker, Walkersville, Md.) solution was added to each well and the plate was incubated for 15 minute at 37° C. The cells were collected onto filter paper using a Tomtec Plate Harvester 96 and counts per minute (CPM) of incorporation 3H-thymidine was measured using a Wallac 1205 Betaplate Liquid Scintillation Counter. Cultures of known amounts of purified activated TGF-β1, 20 ng/ml to 0.2 pg/ml (R&:D Systems), were prepared in the same plate for calculating a standard curve to quantify the concentration of total TGF-β in the samples.
Primed T Cell In Vitro Assays. From draining lymph nodes of BALB/c mice immunized 7 days previously with MT-Ag, primed T cells were isolated using CD3 enrichment columns (R&D Systems). T-cells (4×10^5 cells) suspended in serum-free media were added to the wells of a 96 well, round bottom plate (Corning). To the wells were added α-MSH (30 pg/ml) and anti-TCR antibody (2C11; 1 μg/ml) diluted in serum-free culture media. Various concentrations of TGF-β1 or TGF-β2 in media were added. In a second set of experiments TGF-β1 or TGF-β2 at a fixed concentration of 5 ng/ml were added to the wells at various times (0, 2, 4 and 6 hours) after addition of anti-TCR antibody. The cultures were incubated for 24 hours and 0.5 μCi of 3H-thymidine (NEM, Boston, Mass.) was added to the wells and the cultures were incubated for an additional 24 hours. The cells were collected and incorporated radiolabeled was measured by scintillation counting. Production of TGF-β by the treated primed T cells was done by centrifuging the culture plates 24 hours after the addition of anti-TCR antibody, removing the supernatant, washing the cultures once and adding fresh media. […]
FIG. 4 is a bar graph of TGF-β production by primed T cells TCR-stimulated in the presence of α-MSH. […] Significance (p=0.05) was determined by Student's t-test between TGF-β concentrations in cultures of activated α-MSH treated T cells and T cells activated in the absence of α-MSH. […]

α-melanocyte stimulating hormone (SYSMEHFRWGKPV; not fully specified; ends and bridges not checked; UniProt P01189 138-150, looked up) [α-MSH, synthetic α-MSH (Peninsula Laboratories); thirteen-amino acid neuropeptide derived from POMC]
severity of inflammation and recovery in EAU [1]: suppress the severity of the inflammation and accelerate recovery | TGF-β production by TCR-stimulated primed T cells ([2]; serum-free, transiently acidified supernatant): enhanced levels; also recorded: significantly enhanced | threshold of α-MSH concentration needed to induce TGF-β1 production ([2]; TCR-stimulated T cells): 30 pg/mL
